Measured values from patent US20170209432A1, “LYSINE DEMETHYLASE INHIBITORS FOR MYELOPROLIFERATIVE OR LYMPHOPROLIFERATIVE DISEASES OR DISORDERS” (ORYZON GENOMICS S.A., priority 2011, published 2017).
Where two headings read alike, the source gives them in different places.

Legend:
[1] = system: platelets; test: Platelet levels in mice after 5 consecutive once daily injections; type: in vivo, mice (Hsd:Athymic Nude-Foxn1nu); conditions: blood 60min after last dose
Experimental: On the fifth day, 60min after the administration, mice were sacrificed and blood was collected in sodium citrate-containing tubes for haemogram analysis. Platelet levels were determined and referred as % of platelets compared with the levels found in mice treated with vehicle. Platelet levels were determined in a standard hematology analyzer (Abacus Junior Vet, from Diatron) following the manufacturer's instructions.
20% 2-hydroxypropyl-β-cyclodextrin in H2O was used as a vehicle. When necessary, 10% DMSO was also added in the vehicle. Each day, compounds were administered in a single intraperitoneal injection with administration volumes of 15 ml/kg.
Mice strain was Hsd:Athymic Nude-Foxn1nu. Animals were maintained in air and temperature controlled cages with regular supply of water and food.

[2] = target: T1, Human recombinant monoamine oxidase MAO-A (Homo sapiens, UniProt P21397); test: MAO-A inhibition, kynuramine fluorescence assay; type: biochemical
T1 construct: purchased Sigma Aldrich
T1 sequence (P21397 1-527): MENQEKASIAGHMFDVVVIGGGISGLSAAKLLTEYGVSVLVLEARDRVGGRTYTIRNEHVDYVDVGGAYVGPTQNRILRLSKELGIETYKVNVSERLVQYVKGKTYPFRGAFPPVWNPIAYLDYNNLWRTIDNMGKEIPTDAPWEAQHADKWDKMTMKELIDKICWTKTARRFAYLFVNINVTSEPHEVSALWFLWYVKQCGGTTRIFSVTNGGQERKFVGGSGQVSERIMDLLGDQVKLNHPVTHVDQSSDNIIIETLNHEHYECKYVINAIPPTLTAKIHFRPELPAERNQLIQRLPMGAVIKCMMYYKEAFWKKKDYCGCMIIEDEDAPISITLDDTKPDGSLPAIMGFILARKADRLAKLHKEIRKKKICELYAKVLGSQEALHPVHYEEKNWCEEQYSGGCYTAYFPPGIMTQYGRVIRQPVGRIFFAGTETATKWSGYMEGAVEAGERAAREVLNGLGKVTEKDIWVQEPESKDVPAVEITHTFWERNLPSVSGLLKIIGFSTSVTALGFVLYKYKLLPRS
From the text: (§1) Human recombinant monoamine oxidase proteins MAO-A and MAO-B were purchased from Sigma Aldrich. MAOs catalyze the oxidative deamination of primary, secondary and tertiary amines. In order to monitor MAO enzymatic activities and/or their inhibition rate by inhibitor(s) of interest, a fluorescent-based (inhibitor)-screening assay was set up. 3-(2-Aminophenyl)-3-oxopropanamine (kynuramine dihydrobromide, Sigma Aldrich), a non fluorescent compound was chosen as a substrate. Kynuramine is a non-specific substrate for both MAOs activities. While undergoing oxidative deamination by MAO activities, kynuramine is converted into 4-hydroxyquinoline (4-HQ), a resulting fluorescent product.
The monoamine oxidase activity was estimated by measuring the conversion of kynuramine into 4-hydroxyquinoline. Assays were conducted in 96-well black plates with clear bottom (Corning) in a final volume of 100 μL. The assay buffer was 100 mM HEPES, pH 7.5. Each experiment was performed in triplicate within the same experiment.
Briefly, a fixed amount of MAO (0.25 μg for MAO-A and 0.5 μg for MAO-B) was incubated on ice for 15 minutes in the reaction buffer, in the absence and/or in the presence of various concentrations of inhibitor (e.g., from 0 to 50 μM, depending on the inhibitor strength).
(§2) After leaving the enzyme(s) interacting with the inhibitor, 60 to 90 μM of kynuramine was added to each reaction for MAO-B and MAO-A assay respectively, and the reaction was left for 1 hour at 37° C. in the dark. The oxidative deamination of the substrate was stopped by adding 50 μL (v/v) of NaOH 2N. The conversion of kynuramine to 4-hydroxyquinoline, was monitored by fluorescence (excitation at 320 nm, emission at 360 nm) using a microplate reader (Infinite 200, Tecan). Arbitrary units were used to measure levels of fluorescence produced in the absence and/or in the presence of inhibitor.
(§3) The Ki (IC50) of each inhibitor was determined at Vmax/2.

[3] = system: H3K4 methylation in SH-SY5Y cells; test: Western blot for dimethylated H3-K4 in cells grown with compound; type: cell-based
From the text: FIG. 3 Compound Dual-1 Increases Histone Methylation.
B-actin was used as a loading control.

[4] = target: LSD1 (Homo sapiens, UniProt O60341); test: LSD1 demethylase inhibition, Amplex Red peroxide/peroxidase-coupled assay; type: biochemical; design: purchased BPS Bioscience Inc
From the text: Compounds for use in the methods of the invention can be identified by their ability to inhibit LSD1. The ability of the compounds of the invention to inhibit LSD1 can be tested as follows. Human recombinant LSD1 protein was purchased from BPS Bioscience Inc. In order to monitor LSD1 enzymatic activity and/or its inhibition rate by our inhibitor(s) of interest, di-methylated H3-K4 peptide (Millipore) was chosen as a substrate. The demethylase activity was estimated, under aerobic conditions, by measuring the release of H2O2 produced during the catalytic process, using the Amplex® Red peroxide/peroxidase-coupled assay kit (Invitrogen).
Within the experiment, each concentration of inhibitor was tested in triplicate. […] The enzymatic reactions were set up in a 50 mM sodium phosphate, pH 7.4 buffer. At the end of the incubation, Amplex® Red reagent and horseradish peroxidase (HPR) solution were added to the reaction according to the recommendations provided by the supplier (Invitrogen), and left to incubate for 30 extra minutes at room temperature in the dark. A 1 μM H2O2 solution was used as a control of the kit efficiency. The conversion of the Amplex® Red reagent to resorufin due to the presence of H2O2 in the assay, was monitored by fluorescence (excitation at 540 nm, emission at 590 nm) using a microplate reader (Infinite 200, Tecan). Arbitrary units were used to measure level of H2O2 produced in the absence and/or in the presence of inhibitor.
The maximum demethylase activity of LSD1 was obtained in the absence of inhibitor and corrected for background fluorescence in the absence of LSD1. The Ki (IC50) of each inhibitor was estimated at half of the maximum activity.

[5] = target: T2, Human recombinant monoamine oxidase MAO-B (Homo sapiens, UniProt P27338); test: MAO-B inhibition, kynuramine fluorescence assay; type: biochemical
T2 construct: purchased Sigma Aldrich
T2 sequence (P27338 1-520): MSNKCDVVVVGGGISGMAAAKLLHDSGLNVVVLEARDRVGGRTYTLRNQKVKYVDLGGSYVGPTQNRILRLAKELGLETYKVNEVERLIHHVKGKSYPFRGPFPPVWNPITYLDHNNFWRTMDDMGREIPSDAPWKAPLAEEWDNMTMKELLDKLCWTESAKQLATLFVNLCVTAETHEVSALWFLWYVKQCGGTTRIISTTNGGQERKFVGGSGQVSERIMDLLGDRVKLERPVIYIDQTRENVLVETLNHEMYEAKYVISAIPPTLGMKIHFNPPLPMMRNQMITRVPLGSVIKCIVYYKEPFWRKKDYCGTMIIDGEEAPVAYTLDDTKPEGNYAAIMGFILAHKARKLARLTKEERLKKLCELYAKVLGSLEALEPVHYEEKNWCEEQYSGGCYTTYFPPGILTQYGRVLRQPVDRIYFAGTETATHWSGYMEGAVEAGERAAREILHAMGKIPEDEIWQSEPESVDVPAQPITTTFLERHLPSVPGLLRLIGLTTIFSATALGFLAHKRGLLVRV
From the text: as §1
The monoamine oxidase activity was estimated by measuring the conversion of kynuramine into 4-hydroxyquinoline. […]
as §2, with “The oxidative deamination of the substrate was stopped by adding 50 μL (v/v) of NaOH 2N.” left out
as §3

[6] = system: K562 chronic myelogenous leukemia cells; test: In vitro cytotoxicity, fluorometry-based cell viability, K562; conditions: Homo sapiens, K562, 72 h
Experimental: (§4) K562 chronic myelogenous leukemia cells were seeded at different cell densities in 96-well plates. 24 hours later, compounds were added at serial dilutions.

[7] = system: Jurkat (acute T cell leukemia); test: In vitro cytotoxicity, Jurkat; type: cell-based; conditions: Homo sapiens, same protocol as K562
Experimental: as §4
(§5) Following the same protocol, in vitro cytotoxicity against other hematological cancer cell lines was tested.

[8] = system: HL-60 (acute promyelocytic leukemia); test: In vitro cytotoxicity, HL-60; type: cell-based; conditions: Homo sapiens; HL-60, same protocol as K562
Experimental: as §4, §5

[9] = system: RPMI-8226 (Multiple myeloma); test: In vitro cytotoxicity, RPMI-8226; type: cell-based; conditions: Homo sapiens; RPMI-8226, same protocol as K562
Experimental: as §4, §5

[10] = 3 mg/kg intraperitoneal once daily for 5 days
[11] = 10 mg/kg intraperitoneal once daily for 5 days
[12] = 20 mg/kg intraperitoneal once daily for 5 days
[13] = 40 mg/kg intraperitoneal once daily for 5 days
[14] = 30 mg/kg intraperitoneal once daily for 5 days
[15] = read-out: EC50 (μM), concentration at which 50% of the cells remain viable, K562, cell density 3xA, 72h after compound addition
[16] = read-out: EC50 (μM), concentration at which 50% of the cells remain viable, K562, cell density 10xA, 72h after compound addition
[17] = read-out: EC50 (μM), concentration at which 50% of the cells remain viable, K562, cell density A, 72h after compound addition

| IC50 [2] [µM] | IC50 [4] [µM] | SMILES | % platelets vs. Vehicle [1, 11] [%] | EC50 [6, 15] [µM] | EC50 [6, 16] [µM] | EC50 [6, 17] [µM] | further results |
| --- | --- | --- | --- | --- | --- | --- | --- |
|  |  | CN1CCN(C(=O)CN[C@H]2C[C@@H]2c2ccc(OCc3ccccc3)cc2)CC1 (racemic) [Compound 3] | 5 |  |  |  | % platelets vs. Vehicle ([1]; 1 mg/kg intraperitoneal once daily for 5 days): 46%; % platelets vs. Vehicle [1, 10]: 16% |
| > 2 | < 0.2 | NC(=O)CN[C@H]1CC1c1ccc(OCc2ccccc2)cc1 (stereo partly drawn) [Compound 1] | 66 |  |  |  | H3K4 methylation in cells (western blot) ([3]; SH-SY5Y cells grown with compound for 1, 2, and 3 days, Dual-1 at 100 μM (FIG. 3)): increases H3K4 (4 methylation in cells in a time dependent manner; potency at increasing global dimethylated H3K4 levels as compared to tranylcypromine ([3]; SH-SY5Y cells, Dual-1 at 100 μM, parnate at 250 μM): ≥ 10 fold; % platelets vs. Vehicle ([1]; 5 mg/kg intraperitoneal once daily for 5 days): 91%; % platelets vs. Vehicle [1, 12]: 55%; % platelets vs. Vehicle [1, 13]: 34% |
| > 2 | < 0.2 | NC(=O)CN[C@@H]1C[C@H]1c1ccc(OCc2ccccc2)cc1 [Compound 2] |  |  |  |  | % platelets vs. Vehicle [1, 12]: 35%; % platelets vs. Vehicle [1, 13]: 27%; % platelets vs. Vehicle ([1]; 60 mg/kg intraperitoneal once daily for 5 days): 16% |
|  |  | N[C@H]1C[C@@H]1c1ccc(-c2cccc(C(F)(F)F)c2)nc1 [Compound 4] | 19 |  |  |  | % platelets vs. Vehicle [1, 10]: 87%; % platelets vs. Vehicle ([1]; 9 mg/kg intraperitoneal once daily for 5 days): 30%; % platelets vs. Vehicle ([1]; 18 mg/kg intraperitoneal once daily for 5 days): 19%; % platelets vs. Vehicle [1, 14]: 7%; % platelets vs. Vehicle ([1]; 36 mg/kg intraperitoneal once daily for 5 days): 11% |
|  |  | N[C@H]1CCN(CCN[C@H]2C[C@@H]2c2ccc(-c3cccc(C(F)(F)F)c3)cc2)C1 [Compound 5] | 87 |  |  |  | % platelets vs. Vehicle [1, 14]: 63% |
| > 1 | < 0.07 | CC(C)S(=O)(=O)Nc1cccc(-c2ccc([C@H]3C[C@@H]3N)cc2)c1 [Compound 8] |  | 16.3 | 19.7 | 17.2 | IC50 [5]: > 10 µM; GI50 [7]: 18.2 µM; GI50 [8]: 21.2 µM; GI50 [9]: 35.6 µM |
|  |  | CC(C)S(=O)(=O)Nc1cccc(-c2ccc([C@H]3C[C@@H]3N)cn2)c1 [Compound 9] |  | 57.1 | 95.1 | 31.5 |  |
|  |  | N[C@H]1C[C@@H]1c1ccc(-c2cccc(NS(=O)(=O)c3ccccc3)c2)cc1 [Compound 10] |  | 13.2 | 17.4 | 14.8 |  |

| SMILES | IC50 [2] [µM] | IC50 [4] [µM] | % platelets vs. Vehicle [1, 11] [%] | EC50 [6, 15] [µM] | EC50 [6, 16] [µM] | EC50 [6, 17] [µM] | further results |
| --- | --- | --- | --- | --- | --- | --- | --- |
| N[C@H]1CC1c1ccc(-c2cccc(O)c2)cc1 (stereo partly drawn) [Compound 6] | > 1 | < 0.07 |  | 10.3 | 16.8 | 16.2 | IC50 [5]: > 1 µM; % platelets vs. Vehicle ([1]; 17 mg/kg intraperitoneal once daily for 5 days): 56%; % platelets vs. Vehicle ([1]; 34 mg/kg intraperitoneal once daily for 5 days): 46%; % platelets vs. Vehicle ([1]; 52 mg/kg intraperitoneal once daily for 5 days): 63% |
